For series [1], the system named is UV erythema. The series is described as follows: Protection from UV erythema (Winter et al.), early inflammation. In kind it is in vivo, guinea pigs. The following applies: Cavia porcellus, read-out: Protection from UV ED 50. Here is the method: White guinea pigs having their backs freshly depilated were radiated individually by exposure to the radiation of a UV lamp placed 25 cm above the animal's back for 1 min 30 sec. The zone to be radiated was delimited by a covering pierced with circular holes wrapping each animal. The erythema was visually marked 2 hours after exposure to radiation. The guinea pigs were treated orally with the test products 1 hour after exposure to UV.

For series [2], the system named is carrageenan edema. The series is described as follows: Carrageenan edema test (Winter et al.), rat back paw, anti-inflammatory activity. In kind it is in vivo, rats (male). The settings on record: for ED30: Rattus norvegicus, read-out: Carrageenan edema ED 30. As to the method: Edema of a back paw was caused in male rats by subplantar injection of a 1% suspension of carrageenan in apyrogenic physiological solute. Measurement of the edema by plethysmography occurred 3 hours later. The products studied were administered orally 1 hour before the carrageenan injection. The protection conferred by the treatment was determined by calculation of ED 30 (dose moderating the edema 30% in relation to untreated animals).
A general note: In the carrageenan paw model, swelling and tenderness develop within hours.

The nature of series [3]: Acute oral toxicity (LD50), mortality recorded 2 weeks later. The following applies: mouse, in vivo, Table III, Swiss mice. As to the method:
Lethal doses 50 (LD50) were determined by oral administration in Swiss mice. Mortality was recorded 2 weeks later.

The mark [4] stands for this setting: Table II, oral, 1 hour after UV exposure, guinea pigs, dose reducing erythema 50%.
[5] abbreviates: Table II, oral, 1 hour before carrageenan, rats, dose moderating edema 30%.
Where [6] appears, read: Table I, oral, 1 hour after UV exposure, guinea pigs, erythema marked 2 hours after exposure, dose reducing erythema 50%.
The mark [7] stands for this setting: Table I, oral, 1 hour before carrageenan, rats, edema measured 3 hours later, dose moderating edema 30%.

In general, LD50 refers to the dose at which mortality reaches 50%.

The structures appear in SMILES notation. Entries after “also recorded” stand apart in the source; their conditions may differ. Where two headings read alike, the source gives them in different places. A value given as a limit tells only on which side of the number the result lay.

As for `O=C(c1ccccc1)c1cc2c(s1)CCC2C(=O)O` (stereo not shown) [2-Benzoyl-5,6-dihydro-4H cyclopenta[b]thiophene-4-carboxylic, reference compound], in series [1] (setting [4]), the ED50 is greater than 50 mg/kg. For the same compound, the ED30 in series [2] (setting [5]) is greater than 30 mg/kg.

For the compound `CC(C)Cc1cc2c(s1)CCC2C(=O)O` (stereo not shown) [2-Isobutyl-5,6-dihydro-4H cyclopenta[b]thiophene-4-carboxylic, reference compound], in series [1] (setting [4]), the ED50 was greater than 50 mg/kg. Besides, in series [2] (setting [5]), the ED30 is greater than 30 mg/kg.

Take `CC(C)Cc1sc2c(c1C(=O)c1ccccc1)C(C(=O)O)CC2` (stereo not shown) [3-Benzoyl-2-isobutyl-5,6-dihydro-4Hcyclopenta[b]thio-phene-4-carboxylic acid, reference compound]: the ED50 in series [1] (setting [4]) was greater than 50 mg/kg. The ED30 in series [2] (setting [5]) was greater than 30 mg/kg.

For the compound `Cc1sc2c(c1C(=O)c1ccccc1)C(C(=O)O)CC2` (stereo not shown) [3-benzoyl-2-methyl-5,6-dihydro-4H-cyclopenta[b]thiophene-4-carboxylic acid, reference compound], in series [1] (setting [4]), the ED50 was greater than 50 mg/kg. Moreover, the ED30 in series [2] (setting [5]) was greater than 30 mg/kg.

`Cc1sc2c(c1C(=O)c1ccccc1)CCC2C(=O)O` (stereo not shown) [Example 7, 3-Benzoyl-2-methyl-5,6-dihydro-4H-cyclopenta[b]thiophene-6-carboxylic acid]: the LD50 at 336 h in series [3] worked out at 275 mg/kg. Also, the ED50 in series [1] (setting [6]) and in series [1] (setting [4]) was 0.4 mg/kg in each case. For the same compound, in series [2] (setting [7]), the ED30 was found to be 0.7 mg/kg. Further, the “Carrageenan edema ED 30” value in series [2] (setting [5]) amounted to 0.7 mg/kg. Further, the “activity compared with Indomethacin and with isomeric 4-carboxylic acids (in words)” value in series [2] (carrageenan edema, UV protection and Randall and Selitto tests) was “greater than that of Indomethacin; also recorded: considerably greater than that of 5,6-dihydro-4H-cyclopenta[b]thiophene-4-carboxylic isomeric acids”.

For the compound `Cc1sc2c(c1C(=O)c1cccs1)CCC2C(=O)O` (stereo not shown) [Example 10, 2-Methyl 3-(2-thenoyl)-5,6-dihydro-4H-cyclopenta[b]thiophene-6-carboxylic acid], the LD50 at 336 h in series [3] was found to be 275 mg/kg. For the same compound, the ED50 in series [1] (setting [6]) was 0.2 mg/kg. The ED30 in series [2] (setting [7]) was determined as 3 mg/kg.

Take `Cc1sc2c(c1C(=O)c1ccc(F)cc1)CCC2C(=O)O` (stereo not shown) [Example 21, 3-(4-Fluorobenzoyl)-2-methyl-5,6-dihydro-4H-cyclopenta[b]thiophene-6-carboxylic acid]: the ED50 in series [1] (setting [6]) was 0.4 mg/kg. Moreover, the ED30 in series [2] (setting [7]) was 2.4 mg/kg.

For `Cc1sc2c(c1C(=O)c1ccc(N(C)C)cc1)CCC2C(=O)O` (stereo not shown) [Example 27, 3-(4-Dimethylaminobenzoyl)-2-methyl-5,6-dihydro-4H-cyclopenta[b]thiophene-6-carboxylic acid], the ED50 in series [1] (setting [6]) was found to be 0.6 mg/kg. Moreover, the ED30 in series [2] (setting [7]) stood at 1.3 mg/kg.

Consider `CC(C)Cc1sc2c(c1C(=O)c1ccccc1)CCC2C(=O)O` (stereo not shown) [Example 32, 3-Benzoyl-2-isobutyl-5,6-dihydro-4H-cyclopenta[b]thiophene-6-carboxylic acid], for which, in series [1] (setting [6]), the ED50 is greater than 50 mg/kg. Further, in series [2] (setting [7]), the ED30 is greater than 50 mg/kg.

For `CCc1sc2c(c1C(=O)c1ccccc1)CCC2C(=O)O` (stereo not shown) [Example 38, 3-Benzoyl-2-ethyl-5,6-dihydro-4H-cyclopenta[b]thiophene-6-carboxylic acid], the ED50 in series [1] (setting [6]) was determined as 2 mg/kg. Besides, in series [2] (setting [7]), the ED30 came to 6 mg/kg.

Take `COc1ccc2c(c1)c(CC(=O)O)c(C)n2C(=O)c1ccc(Cl)cc1` [INDOMETHACIN, 1-(4-chlorobenzoyl)-5-methoxy-2-methyl-3-indolylacetic acid, reference compound]: in series [3], the LD50 at 336 h came to 25 mg/kg. In addition, the ED50 in series [1] (po) amounted to 4.5 mg/kg. For the same compound, the ED30 in series [2] (po) stood at 5 mg/kg.

The record behind these values is patent US4649153A, “5,6-Dihydro-4H-cyclopenta(b)thiophene-6-carboxylic acids, preparation processes and medicines containing them” (Lipha, Lyonnaise Industrielle Pharmaceutique, priority 1984, dated 1987).
